Data from patent US20240261417A1, “SOS1 DEGRADING AGENT AND PREPARATION METHOD THEREFOR AND APPLICATION THEREOF” (SHANGHAI LEADINGTAC PHARMACEUTICAL CO. LTD., priority 2021, published 2024).
Like-named read-outs stand apart in the source and are kept apart here.

Molecular target: T1, SOS1 protein (Homo sapiens, UniProt Q07889)
T1 sequence (Q07889 1-1333): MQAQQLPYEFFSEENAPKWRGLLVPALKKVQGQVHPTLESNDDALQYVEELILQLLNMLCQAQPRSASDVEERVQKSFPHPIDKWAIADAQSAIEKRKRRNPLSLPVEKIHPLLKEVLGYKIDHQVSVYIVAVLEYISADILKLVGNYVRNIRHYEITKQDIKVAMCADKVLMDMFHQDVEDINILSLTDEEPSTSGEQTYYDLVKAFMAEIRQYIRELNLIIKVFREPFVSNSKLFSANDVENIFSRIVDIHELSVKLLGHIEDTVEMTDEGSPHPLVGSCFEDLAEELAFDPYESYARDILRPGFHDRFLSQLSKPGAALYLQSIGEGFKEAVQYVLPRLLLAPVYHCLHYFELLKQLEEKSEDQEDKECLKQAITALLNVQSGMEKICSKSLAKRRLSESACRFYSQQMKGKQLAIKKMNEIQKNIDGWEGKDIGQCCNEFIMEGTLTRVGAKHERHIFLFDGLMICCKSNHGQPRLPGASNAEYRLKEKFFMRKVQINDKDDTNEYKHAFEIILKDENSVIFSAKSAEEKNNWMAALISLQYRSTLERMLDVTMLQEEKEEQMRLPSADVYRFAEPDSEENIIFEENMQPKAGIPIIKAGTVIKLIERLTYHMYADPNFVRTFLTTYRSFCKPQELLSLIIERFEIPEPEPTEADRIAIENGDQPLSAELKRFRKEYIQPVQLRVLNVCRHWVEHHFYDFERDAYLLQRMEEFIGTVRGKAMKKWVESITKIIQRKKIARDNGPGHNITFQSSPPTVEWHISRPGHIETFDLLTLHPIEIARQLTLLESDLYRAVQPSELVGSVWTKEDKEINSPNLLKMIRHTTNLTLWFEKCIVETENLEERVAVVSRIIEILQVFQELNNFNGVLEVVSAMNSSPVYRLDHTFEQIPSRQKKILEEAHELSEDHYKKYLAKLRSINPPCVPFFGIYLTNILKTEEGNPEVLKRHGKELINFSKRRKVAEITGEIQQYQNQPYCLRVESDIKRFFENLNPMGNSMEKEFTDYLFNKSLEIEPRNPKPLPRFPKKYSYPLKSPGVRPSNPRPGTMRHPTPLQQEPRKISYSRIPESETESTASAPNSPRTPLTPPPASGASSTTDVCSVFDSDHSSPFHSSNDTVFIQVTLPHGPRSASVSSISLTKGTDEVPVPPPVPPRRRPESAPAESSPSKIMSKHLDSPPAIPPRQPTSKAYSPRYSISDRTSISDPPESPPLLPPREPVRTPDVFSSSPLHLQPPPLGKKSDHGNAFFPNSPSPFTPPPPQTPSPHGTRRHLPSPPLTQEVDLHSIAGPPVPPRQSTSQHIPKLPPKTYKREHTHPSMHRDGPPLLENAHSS
Test: SOS1 degradation assay (Western blot), NCI-H358 cells
Format: cell-based
Parameters: The degradation of SOS1 by the compounds was investigated on KRAS G12C mutant human non-small cell lung cancer cells NCI-H358; host or cells: NCI-H358 (human cancer cell lines)
Details: for DC50: read-out: NCI-H358 (G12C) DC50
Summary of the method: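 Cells at 5×10^5 per well were treated for 24 h at 37 °C with compound at 0.03–3000 nM final. SOS1 in lysates was measured by Western blot with chemiluminescent densitometry and normalised to the control group. DC50 and Dmax came from nonlinear fits against log concentration.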

[1] = SOS1 degradation, NCI-H358 cells, 24 h, Western blot
[2] = SOS1 degradation, NCI-H358 cells, 24 h, Western blot, read-out: NCI-H358 (G12C) Dmax

| SMILES | DC50 [1] [nM] | Dmax [2] [%] | Dmax (NCI-H358, read-out: NCI-H358 (G12C) Dmax) [%] | NCI-H358 (G12C) Dmax [1] |
| --- | --- | --- | --- | --- |
| COc1cc2nc(C)nc(N[C@H](C)c3cc(N)cc(C(F)(F)F)c3)c2cc1C1=CCC(C(=O)N2CCC(CCOCC3CCN(C(=O)c4ccc(OC)c(N5CCC(=O)NC5=O)c4)CC3)CC2)CC1 (stereo partly drawn) [Example 32, 1-(5-(4-((2-(1-(4-(4-(((R)-1-(3-amino-5-(trifluoromethyl)phenyl)ethyl)amino)-7-methoxy-2-methylquinazolin-6-yl)cyclohex-3-ene-1-carbonyl)piperidin-4-yl)ethoxy)methyl)piperidine-1-carbonyl)-2-methoxyphenyl)dihydropyrimidine-2,4(1H,3H)-dione] | < 50 | 80 to 100 |  |  |
| COc1cc2nc(C)nc(N[C@H](C)c3cc(N)cc(C(F)(F)F)c3)c2cc1C1CCC(C(=O)N2CCC(CCOCC3CCN(C(=O)c4ccc5c(c4)C(=O)N(C4CCC(=O)NC4=O)C5=O)CC3)CC2)CC1 (stereo partly drawn) [Example 39, 5-(4-((2-(1-((1S,4S)-4-(4-(((R)-1-(3-amino-5-(trifluoromethyl)phenyl)ethyl)amino)-7-methoxy-2-methylquinazolin-6-yl)cyclohexane-1-carbonyl)piperidin-4-yl)ethoxy)methyl)piperidine-1-carbonyl)-2-(2,6-dioxopiperidin-3-yl)isoindoline-1,3-dione] | < 50 | 80 to 100 |  |  |
| COc1cc2nc(C)nc(N[C@H](C)c3cc(NC(C)C)cc(C(F)(F)F)c3)c2cc1[C@H]1CC[C@H](C(=O)N2CCN(CC3CCC4(CC3)CCN(C(=O)c3ccc(Cl)c(N5CCC(=O)NC5=O)c3)CC4)CC2)CC1 [Example 18, 1-(2-chloro-5-(9-((4-((1R,4R)-4-(4-(((R)-1-(3-(isopropylamino)-5-(trifluoromethyl)phenyl)ethyl)amino)-7-methoxy-2-methylquinazolin-6-yl)cyclohexane-1-carbonyl)piperazin-1-yl)methyl)-3-azaspiro[5.5]undecane-3-carbonyl)phenyl)dihydropyrimidine-2,4(1H,3H)-dione] | 1000 to 10000 |  | < 30 |  |
| COc1cc2nc(C)nc(N[C@H](C)c3cc(N)cc(C(F)(F)F)c3)c2cc1[C@H]1CC[C@H](C(=O)N(C)CCOCC#CC2CCN(C(=O)c3ccc(Cl)c(N4CCC(=O)NC4=O)c3)CC2)CC1 [Example 26, (1R,4R)-4-(4-(((R)-1-(3-amino-5-(trifluoromethyl)phenyl)ethyl)amino)-7-methoxy-2-methylquinazolin-6-yl)-N-(2-((3-(1-(4-chloro-3-(2,4-dioxotetrahydropyrimidin-1(2H)-yl)benzoyl)piperidin-4-yl)prop-2-yn-1-yl)oxo)ethyl)-N-methylcyclohexane-1-carboxamide] | 1000 to 10000 |  |  | D (when Dmax (%)<30, the level was D) |
| COc1cc2nc(C)nc(N[C@@H](C)c3cc(N)cc(C(F)(F)F)c3)c2cc1[C@H]1CC[C@@H](C(=O)N2CCN(CCC3CCC4(CC3)CCN(C(=O)c3ccc(Cl)c(N5CCC(=O)NC5=O)c3)CC4)CC2)CC1 [Example 34, 1-(5-(9-(2-(4-((1S,4S)-4-(4-(((R)-1-(3-amino-5-(trifluoromethyl)phenyl)ethyl)amino)-7-methoxy-2-methylquinazolin-6-yl)cyclohexane-1-carbonyl)piperazin-1-yl)ethyl)-3-azaspiro[5.5]undecane-3-carbonyl)-2-chlorophenyl)dihydropyrimidine-2,4(1H,3H)-dione] |  |  |  | C (when 30≤Dmax (%)<50, the level was C) |
| COc1cc2nc(C)nc(N[C@H](C)c3cc(-c4c(Cl)cccc4CN(C)C)cs3)c2cc1[C@H]1CC[C@H](C(=O)N2CCC(CCOCC3CCN(c4ccc5c(c4)C(=O)N(C4CCC(=O)NC4=O)C5=O)CC3)CC2)CC1 (stereo partly drawn) [Example 41] | 100 to 500 | 80 to 100 |  |  |

Further lines, with some results ahead:

| DC50 [1] [nM] | Dmax [2] [%] | SMILES | Dmax (NCI-H358, read-out: NCI-H358 (G12C) Dmax) [%] | NCI-H358 (G12C) Dmax [1] |
| --- | --- | --- | --- | --- |
| 1000 to 10000 | < 30 | COc1cc2nc(C)nc(N[C@H](C)c3cc(N)cc(C(F)(F)F)c3)c2cc1[C@H]1CC[C@H](C(=O)N2CCN(CCOC3CCN(C(=O)c4ccc(Cl)c(N5CCC(=O)NC5=O)c4)CC3)CC2)CC1 [Example 30, 1-(5-(4-(2-(4-((1R,4R)-4-(4-(((R)-1-(3-amino-5-(trifluoromethyl)phenyl)ethyl)amino)-7-methoxy-2-methylquinazolin-6-yl)cyclohexane-1-carbonyl)piperazin-1-yl)ethoxy)piperidine-1-carbonyl)-2-chlorophenyl)dihydropyrimidine-2,4(1H,3H)-dione] |  |  |
| < 50 | 80 to 100 | COc1cc2nc(C)nc(N[C@H](C)c3cc(-c4ccccc4CN(C)C)cs3)c2cc1[C@H]1CC[C@H](C(=O)N2CCC(CCOCC3CCN(C(=O)c4ccc(Cl)c(N5CCC(=O)NC5=O)c4)CC3)CC2)CC1 [Example 48] |  |  |
| 1000 to 10000 | 30 to 50 | COc1cc2nc(C)nc(N[C@H](C)c3cc(NC(C)=O)cc(C(F)(F)F)c3)c2cc1[C@H]1CC[C@H](C(=O)N2CCN(CC3CCC4(CC3)CCN(C(=O)c3ccc(Cl)c(N5CCC(=O)NC5=O)c3)CC4)CC2)CC1 [Example 17, N-(3-((R)-1-((6-((1R,4R)-4-(4-((3-(4-chloro-3-(2,4-dioxotetrahydropyrimidin-1(2H)-yl)benzoyl)-3-azaspiro[5.5]undecane-9-yl)methyl)piperazine-1-carbonyl)cyclohexyl)-7-methoxy-2-methylquinazolin-4-yl)amino)ethyl)-5-(trifluoromethyl)phenyl)acetamide] |  |  |
| 1000 to 10000 | 30 to 50 | COc1cc2nc(C)nc(N[C@H](C)c3cc(N)cc(C(F)(F)F)c3)c2cc1[C@H]1CC[C@H](C(=O)N2CCN(CC3CCN(C(=O)c4ccc(Cl)c(N5CCC(=O)NC5=O)c4)CC3)CC2)CC1 [Example 13, 1-(5-(4-((4-((1R,4R)-4-(4-(((R)-1-(3-amino-5-(trifluoromethyl)phenyl)ethyl)amino)-7-methoxy-2-methylquinazolin-6-yl)cyclohexane-1-carbonyl)piperazin-1-yl)methyl)piperidine-1-carbonyl)-2-chlorophenyl)dihydropyrimidine-2,4(1H,3H)-dione] |  |  |
| 1000 to 10000 | < 30 | [2H]C1([2H])CC(OCC2CCN(C(=O)c3ccc(Cl)c(N4CCC(=O)NC4=O)c3)CC2)CC([2H])([2H])N1C(=O)[C@H]1CC[C@H](c2cc3c(N[C@H](C)c4cc(N)cc(C(F)(F)F)c4)nc(C)nc3cc2OC)CC1 [Example 40, 1-(5-(4-(((1-((1R,4R)-4-(4-(((R)-1-(3-amino-5-(trifluoromethyl)phenyl)ethyl)amino)-7-methoxy-2-methylquinazolin-6-yl)cyclohexane-1-carbonyl)piperidin-4-yl-2,2,6,6-d4)oxy)methyl)piperidine-1-carbonyl)-2-chlorophenyl)dihydropyrimidine-2,4(1H,3H)-dione] |  |  |
